“Also recorded” adds a separate entry of the source.
Target: LRRK2 (Homo sapiens, UniProt Q5S007)
Assay: LRRK2 degradation in PBMC
Type: cell-based
Design: endogenous in cells; host or cells: human peripheral blood mononuclear cells (PBMC)
Description: PBMC cells were separated from human blood following existing protocol (dx.doi.org/10.17504/protocols.io.bnhxmb7n) and pelleted by centrifugation at 1000 g for 2 min. The supernatant was discarded and the PBMC pellet was resuspended in PBS containing 2% FBS for washing. The suspension was centrifuged at 1000 g for 2 min again and the PBMC pellet was resuspended in RPMI-1640 (Gibco) media supplemented with 10% FBS. The cells were then seeded into 6-well plates and treated with testing compounds at indicated concentrations and time period. After treatment, the cells were collected into 2-ml Eppendorf tube and centrifuged at 500 g for 2 min to pellet the cells, the supernatant was discarded, and the pellet was resuspended in 1 ml PBS and centrifuged at 500 g for 2 min again. The PBMC pellet was lysed with 60 μL of lysis buffer containing 50 mM Tris-HCl, pH 7.5, 1% (v/v) Triton X-100, 1 mM EGTA, 1 mM sodium orthovanadate, 50 mM NaF, 0.1% (v/v) 2-mercaptoethanol, 10 mM 2-glycerophosphate, 5 mM sodium pyrophosphate, 0.1 μg/ml mycrocystin-LR (Enzo Life Sciences), 270 mM sucrose, 0.5 mM DIFP (Sigma, Cat #D0879) in addition to Complete EDTA-free protease inhibitor cocktail (Sigma-Aldrich Cat #11836170001). DIFP is highly toxic and must be prepared in a fume hood to a stock solution of 0.5 M in isopropanol. The lysed cells were then centrifuged at 1500 g for 15 min at 0° C. The supernatants were collected for analysis by quantitative immunoblotting. For long term storage, the supernatant was flash frozen and stored at −80° C. Protein concentrations of cell lysates were determined using Pierce™ BCA Protein Assay Kit (ThermoFisher).
Cell lysates containing a quarter of a volume of 4× NuPAGE LDS sample buffer (NP0007) supplemented with 5% β-mercaptoethanol, were heated at 95° C. for 5 minutes. 15 to 20 μg of samples were loaded onto pre-cast 4-12% Bis-Tris midi 20W or 26W gels (Thermofisher Scientific®, Cat #WG1402BOX or WG1403BOX) and resolved at 130 V for 2 hours with NuPAGE MOPS SDS running buffer (Thermofisher Scientific® Cat #NP0001-02). Proteins were electrophoretically transferred onto a 0.45 μm nitrocellulose membrane (GE Healthcare, Amersham Protran® Supported 0.45 mm NC) at 90 V for 90 min on ice in transfer buffer (48 mM Tris base and 39 mM glycine supplemented with 20% methanol). The transferred membrane was blocked with 5% (w/v) skim milk powder dissolved in tris-buffered saline with tween (TBS-T) (50 mM Tris base, 150 mM sodium chloride (NaCl), 0.1% (v/v) Tween-20) at room temperature for 1 hour. Membranes were washed three times with TBS-T and were incubated in primary antibody overnight at 4° C. Prior to secondary antibody incubation, membranes were washed three times for 15 minutes with TBS-T. The membranes were incubated with secondary antibody for 1 hour at room temperature, protected from light. Thereafter, the membranes were washed with TBS-T three times with a 15-minute incubation for each wash, and protein bands were acquired via near-infrared fluorescent detection using the Odyssey CLx imaging system and quantified using Image Studio software. Graphs were generated using Graphpad Prism version 8 software.
Monoclonal rabbit LRRK2 Ser935 (Cat #UDD2) was purified by MRC PPU Reagents and Services at the University of Dundee and was used at a final concentration of 1 μg/ml. Total LRRK2 (C-terminus) was from Antibodies Inc./Neuromab (Cat #75-253) and was diluted 1:1000. The MJFF monoclonal rabbit Rab10 pThr73, which was characterized previously (Lis et al., Biochem J. 2018 Jan. 2; 475(1):1-22.) was purchased from Abcam Inc. (ab230261) and diluted 1:1000. Mouse monoclonal alpha-tubulin (#3873) was purchased from Cell Signaling Technology and used at 1:1000. The mouse monoclonal anti-Rab10 total antibody was purchased from Nanotools (#0680-100/Rab10-605B11) and was used at a final concentration of 1 μg/ml. Mouse monoclonal Hif-1α was purchased from R&D Systems (Cat #MAB1536) and was diluted 1:1000.

LRRK2, sequence (Q5S007 whole entry): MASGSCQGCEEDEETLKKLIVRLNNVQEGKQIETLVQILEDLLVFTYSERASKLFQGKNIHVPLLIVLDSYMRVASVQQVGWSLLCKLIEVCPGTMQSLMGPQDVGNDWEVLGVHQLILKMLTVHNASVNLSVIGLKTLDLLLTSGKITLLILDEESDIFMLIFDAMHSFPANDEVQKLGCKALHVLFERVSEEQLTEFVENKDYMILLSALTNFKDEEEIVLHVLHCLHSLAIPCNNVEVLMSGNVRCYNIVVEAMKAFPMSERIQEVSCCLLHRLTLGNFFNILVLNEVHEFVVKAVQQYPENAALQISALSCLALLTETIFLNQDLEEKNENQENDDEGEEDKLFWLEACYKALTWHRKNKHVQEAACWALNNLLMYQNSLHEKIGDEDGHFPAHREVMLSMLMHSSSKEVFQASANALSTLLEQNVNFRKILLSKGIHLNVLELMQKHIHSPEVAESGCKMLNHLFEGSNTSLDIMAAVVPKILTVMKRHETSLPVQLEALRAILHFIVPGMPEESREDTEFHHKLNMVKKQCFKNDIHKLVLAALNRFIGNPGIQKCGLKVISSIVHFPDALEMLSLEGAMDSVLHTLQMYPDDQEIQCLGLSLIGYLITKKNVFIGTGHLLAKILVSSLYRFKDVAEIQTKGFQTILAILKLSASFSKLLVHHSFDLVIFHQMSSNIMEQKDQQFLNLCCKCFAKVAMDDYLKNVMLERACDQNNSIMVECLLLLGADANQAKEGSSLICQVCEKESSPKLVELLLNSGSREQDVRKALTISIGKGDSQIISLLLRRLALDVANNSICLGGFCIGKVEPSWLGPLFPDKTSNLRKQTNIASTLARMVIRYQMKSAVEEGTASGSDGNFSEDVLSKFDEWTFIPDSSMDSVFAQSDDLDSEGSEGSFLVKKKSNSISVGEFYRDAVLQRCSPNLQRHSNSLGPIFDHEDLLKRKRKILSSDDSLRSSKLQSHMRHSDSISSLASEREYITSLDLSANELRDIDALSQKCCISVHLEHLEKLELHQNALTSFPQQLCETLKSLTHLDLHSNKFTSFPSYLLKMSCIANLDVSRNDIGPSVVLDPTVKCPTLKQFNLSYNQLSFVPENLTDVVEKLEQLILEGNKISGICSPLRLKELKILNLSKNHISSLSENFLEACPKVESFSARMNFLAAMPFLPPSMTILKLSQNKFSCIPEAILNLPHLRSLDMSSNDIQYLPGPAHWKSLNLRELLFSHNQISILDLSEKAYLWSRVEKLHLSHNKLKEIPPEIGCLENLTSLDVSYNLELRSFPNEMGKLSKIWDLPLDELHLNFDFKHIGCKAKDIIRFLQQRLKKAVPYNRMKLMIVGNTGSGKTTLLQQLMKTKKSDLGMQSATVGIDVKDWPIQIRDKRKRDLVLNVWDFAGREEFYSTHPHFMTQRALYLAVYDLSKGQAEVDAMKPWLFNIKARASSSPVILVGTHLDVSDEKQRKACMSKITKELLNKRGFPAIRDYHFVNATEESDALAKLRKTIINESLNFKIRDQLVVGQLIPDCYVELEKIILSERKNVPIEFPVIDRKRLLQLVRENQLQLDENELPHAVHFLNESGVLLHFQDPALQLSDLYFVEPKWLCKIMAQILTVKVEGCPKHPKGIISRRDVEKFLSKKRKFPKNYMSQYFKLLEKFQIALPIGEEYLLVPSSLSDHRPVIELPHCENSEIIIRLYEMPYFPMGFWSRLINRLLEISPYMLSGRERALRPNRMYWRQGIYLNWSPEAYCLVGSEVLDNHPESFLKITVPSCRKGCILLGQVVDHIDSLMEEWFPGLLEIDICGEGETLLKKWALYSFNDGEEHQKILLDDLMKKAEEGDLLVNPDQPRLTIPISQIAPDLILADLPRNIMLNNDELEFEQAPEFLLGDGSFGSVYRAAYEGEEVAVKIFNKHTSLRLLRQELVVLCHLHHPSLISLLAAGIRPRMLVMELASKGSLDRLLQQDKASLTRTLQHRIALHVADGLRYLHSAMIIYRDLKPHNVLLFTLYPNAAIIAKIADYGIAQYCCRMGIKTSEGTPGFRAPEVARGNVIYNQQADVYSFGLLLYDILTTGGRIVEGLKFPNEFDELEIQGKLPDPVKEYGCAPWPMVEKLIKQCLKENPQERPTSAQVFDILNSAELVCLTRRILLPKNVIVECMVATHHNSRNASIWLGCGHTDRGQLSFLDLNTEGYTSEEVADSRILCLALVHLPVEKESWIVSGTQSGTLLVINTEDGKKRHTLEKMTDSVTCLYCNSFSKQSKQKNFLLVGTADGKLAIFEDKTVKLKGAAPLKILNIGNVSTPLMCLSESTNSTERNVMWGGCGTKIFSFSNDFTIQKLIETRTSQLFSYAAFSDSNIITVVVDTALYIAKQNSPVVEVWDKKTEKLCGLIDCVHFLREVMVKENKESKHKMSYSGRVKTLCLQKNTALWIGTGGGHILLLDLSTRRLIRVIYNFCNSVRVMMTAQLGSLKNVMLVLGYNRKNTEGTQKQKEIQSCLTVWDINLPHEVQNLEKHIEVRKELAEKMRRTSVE

| LRRK2 degradation in PBMC (in words) (4 h treatment) | LRRK2 degradation in PBMC (in words) (time course at 300 nM) | Structure (SMILES) | LRRK2 degradation in PBMC (in words) (24 h treatment) | DC50 (4 h treatment) [nM] | DC50 (24 h treatment) [nM] | Dmax of LRRK2 degradation in PBMC (24 h treatment) | T1/2 of LRRK2 degradation in PBMC (time course at 300 nM) [h] |
| --- | --- | --- | --- | --- | --- | --- | --- |
| cannot degrade LRRK2 | cannot degrade LRRK2 | CNc1nc(Nc2ccc(C(=O)N3CCN(C[C@H]4CC[C@H](CSC(C)(C)[C@H](NC(=O)C5(F)CC5)C(=O)N5C[C@@H](O)CC5C(=O)NCc5ccc(-c6scnc6C)cc5)CC4)CC3)cc2OC)ncc1Cl (stereo partly drawn) [Cis-XL01126, (2S,4S)-1-((R)-3-((((1r,4R)-4-((4-(4-((5-chloro-4-(methylamino)pyrimidin-2-yl)amino)-3-methoxybenzoyl)piperazin-1-yl)methyl)cyclohexyl)methyl)thio)-2-(1-fluorocyclopropane-1-carboxamido)-3-methylbutanoyl)-4-hydroxy-N-(4-(4-methylthiazol-5-yl)benzyl)pyrrolidine-2-carboxamide] | degraded little LRRK2; also recorded: cannot degrade LRRK2 | – | – | – | – |
| – | – | CNc1nc(Nc2ccc(C(=O)N3CCN(C[C@H]4CC[C@H](CSC(C)(C)[C@H](NC(=O)C5(F)CC5)C(=O)N5C[C@H](O)CC5C(=O)NCc5ccc(-c6scnc6C)cc5)CC4)CC3)cc2OC)ncc1Cl (stereo partly drawn) [XL01126, (2S,4R)-1-((R)-3-((((1R,4R)-4-((4-(4-((5-chloro-4-(methylamino)pyrimidin-2-yl)amino)-3-methoxybenzoyl)piperazin-1-yl)methyl)cyclohexyl)methyl)thio)-2-(1-fluorocyclopropane-1-carboxamido)-3-methylbutanoyl)-4-hydroxy-N-(4-(4-methylthiazol-5-yl)benzyl)pyrrolidine-2-carboxamide] | – | 72 | 17 | 80-90% | 2.4 |

Reference: patent US20260001875A1, “AMINOPYRIMIDINYL DERIVATIVES FOR THE TREATMENT OF PARKINSON'S DISEASE” (UNIVERSITY OF DUNDEE, priority 2022, published 2026)
